The text below walks through data of paper PMC10705561 (bioRxiv, 2023).

In test [1] the test system is rNsp5-S144M recombinant SARS-CoV-2. It counts as cell-based.
Test [2] deals with rNsp5-L50F/E166V recombinant SARS-CoV-2. It counts as cell-based.

For `CC(C)(C)[C@H](NC(=O)C(F)(F)F)C(=O)N1C[C@H]2[C@@H]([C@H]1C(=O)N[C@H](C#N)C[C@@H]1CCNC1=O)C2(C)C` [nirmatrelvir], the results for the “EC50 fold-increase compared to WT” value in test [1] and in test [2] were 12.5 and 24.2, respectively.
